In ChEMBL document CHEMBL1148091, “Cyclopsychotride A, a biologically active, 31-residue cyclic peptide isolated from Psychotria longipes” (J Nat Prod, 1994) one finds IC50 and Activity data, which are given here for one molecule.

Assay [1] is described as follows: Displacement of [125I]NT from neurotensin receptor in human HT-29 cells. The format is cell-based. On the technique in general: Displacement assays read how much labelled ligand stays bound in the presence of the test substance.
Another assay concerns HT-29. Kind of assay: Antagonist activity at neurotensin receptor in human HT-29 cells assessed as effect on NT-induced intracellular Ca2+ increase by spectrofluorimetry. The format is functional, cell-based.

As for `CC[C@H](C)[C@@H]1NC(=O)[C@@H]2CCCN2C(=O)[C@H](CS)NC(=O)CNC(=O)[C@H](CCC(=O)O)NC(=O)[C@H](CO)NC(=O)[C@H](CS)NC(=O)[C@H](C(C)C)NC(=O)[C@H](Cc2ccccc2)NC(=O)[C@H]([C@@H](C)CC)NC(=O)[C@@H]2CCCN2C(=O)[C@H](CS)NC(=O)[C@H]([C@H](C)O)NC(=O)[C@H](C(C)C)NC(=O)[C@H]([C@H](C)O)NC(=O)[C@H](C)NC(=O)[C@H](CC(C)C)NC(=O)[C@H](CC(C)C)NC(=O)CNC(=O)[C@H](CS)NC(=O)[C@H](CO)NC(=O)[C@H](CS)NC(=O)[C@H](CCCCN)NC(=O)[C@H](CO)NC(=O)[C@H](CCCCN)NC(=O)[C@H](C(C)C)NC(=O)[C@H](CS)NC(=O)[C@H](Cc2ccc(O)cc2)NC(=O)[C@H](CCCCN)NC(=O)[C@H](CC(N)=O)NC(=O)[C@H](CO)NC1=O` [CYCLOPSYCHOTRIDE A], the concentration for half-maximal inhibition (IC50) in assay [1] was determined as 3000 nM. The Activity result in the assay with HT-29 was “Dose-dependent effect”.

In general, IC50 refers to the concentration at which inhibition is half-maximal.
